# Experimental data as given in patent US20170355708A1, “POTASSIUM CHANNEL MODULATORS” (Cadent Therapeutics, Inc., priority 2016, published 2017).
# Target: T1, hSK2 channels (Homo sapiens, UniProt P0DP23+Q9H2S1)
# T1 construct: expressed in transfected cells; host or cells: HEK293
# Assay: Whole-cell patch-clamp recording of SK2 channel current (SC100)
# Assay type: cell-based
# Settings: Stimulating Concentration required for increasing the baseline current by 100%; HEK293 cells expressing hSK2; Table 3
# Method: The biological activity of certain compounds were determined as follows. The ionic current through small-conductance Ca^2+-activated K^+ channels (SK channels, subtype 2) is recorded using the whole-cell configuration of the patch-clamp technique in a classic patch-clamp set-up using HEK293 tissue culture cells expressing hSK2 channels as described in Kasumu et. al., Chemistry & Biology 19, 1340-1353, Oct. 26, 2012.
# The SC100 value determined is defined as the Stimulating Concentration required for increasing the baseline current by 100%.
row,SC100 uM,Structure (SMILES)
1,++ (++ means 200 nM-1000 nM),"Cc1cc(C)n(-c2nc(Nc3ccc(F)c(F)c3)cc(N3CCO[C@H](CO)C3)n2)n1 (single isomer, unassigned) [Compound 122, (−)-(4-(6-((3,4-difluorophenyl)amino)-2-(3,5-dimethyl-1H-pyrazol-1-yl)pyrimidin-4-yl)morpholin-2-yl)methanol]"
2,++ (++ means 200 nM-1000 nM),"Cc1cc(C)n(-c2nc(Nc3ccc(Cl)cc3)cc(N[C@H](C)C(N)=O)n2)n1 (single isomer, unassigned) [Compound 123, (+)-2-((6-((4-chlorophenyl)amino)-2-(3,5-dimethyl-1H-pyrazol-1-yl)pyrimidin-4-yl)amino)propanamide]"
3,++ (++ means 200 nM-1000 nM),"Cc1cc(C)n(-c2nc(Nc3ccc(F)c(F)c3)cc(NC3C4CN(Cc5ccccc5)CC43)n2)n1 (centres unmarked) [Compound 134, N4-(3-benzyl-3-azabicyclo[3.1.0]hexan-6-yl)-N6-(3,4-difluorophenyl)-2-(3,5-dimethyl-1H-pyrazol-1-yl)pyrimidine-4,6-diamine]"
4,+++ (+++ means <200 nM),"CC(=O)N1CCN(c2cc(Nc3ccc(F)c(F)c3)nc(-n3nc(C)cc3C)n2)CC1 [Compound 100, 1-(4-(6-((3,4-difluorophenyl)amino)-2-(3,5-dimethyl-1H-pyrazol-1-yl)pyrimidin-4-yl)piperazin-1-yl)ethan-1-one]"
5,++ (++ means 200 nM-1000 nM),"Cc1cc(C)n(-c2nc(Nc3ccc(Cl)cc3)cc(NC(C)C(N)=O)n2)n1 (centres unmarked) [Compound 114, 2-((6-((4-chlorophenyl)amino)-2-(3,5-dimethyl-1H-pyrazol-1-yl)pyrimidin-4-yl)amino)propanamide]"
6,+++ (+++ means <200 nM),"Cc1cc(C)n(-c2cc(N3CCNC(C(N)=O)C3)nc(Nc3ccc(F)c(F)c3)n2)n1 (centres unmarked) [Compound 116, 4-(2-((3,4-difluorophenyl)amino)-6-(3,5-dimethyl-1H-pyrazol-1-yl)pyrimidin-4-yl)piperazine-2-carboxamide]"
7,+++ (+++ means <200 nM),"Cc1cc(C)n(-c2cc(N3CCO[C@@H](C(N)=O)C3)nc(Nc3ccc(F)c(F)c3)n2)n1 (single isomer, unassigned) [Compound 132, (−)-4-(2-((3,4-difluorophenyl)amino)-6-(3,5-dimethyl-1H-pyrazol-1-yl)pyrimidin-4-yl)morpholine-2-carboxamide]"
8,++ (++ means 200 nM-1000 nM),"Cc1cc(C)n(-c2nc(Nc3ccc(F)cc3F)cc(N3CCNC(C(N)=O)C3)n2)n1 (centres unmarked) [Compound 115, 4-(6-((2,4-difluorophenyl)amino)-2-(3,5-dimethyl-1H-pyrazol-1-yl)pyrimidin-4-yl)piperazine-2-carboxamide]"
9,+++ (+++ means <200 nM),"Cc1cc(C)n(-c2cc(N3CCO[C@H](C(N)=O)C3)nc(Nc3ccc(F)c(F)c3)n2)n1 (single isomer, unassigned) [Compound 131, (+)-4-(2-((3,4-difluorophenyl)amino)-6-(3,5-dimethyl-1H-pyrazol-1-yl)pyrimidin-4-yl)morpholine-2-carboxamide]"
10,+++ (+++ means <200 nM),"Cc1cc(C)n(-c2cc(N3CCOC(C(N)=O)C3)nc(Nc3ccc(F)c(F)c3)n2)n1 (racemic) [Compound 129, 4-(2-((3,4-difluorophenyl)amino)-6-(3,5-dimethyl-1H-pyrazol-1-yl)pyrimidin-4-yl)morpholine-2-carboxamide]"
11,+ (+ means >1 uM),"Cc1cc(C)n(-c2cc3ccn(C)c3c(Nc3ccc(Cl)cc3)n2)n1 [Compound 144, N-(4-chlorophenyl)-5-(3,5-dimethyl-1H-pyrazol-1-yl)-1-methyl-1H-pyrrolo [2,3-c]pyridin-7-amine]"

# Further lines, the compound ahead of its results:
row,Structure (SMILES),SC100 uM
1,"Cc1cc(C)n(-c2nc(Nc3ccc(Cl)cc3)nc3c2ncn3C(C)C)n1 [Compound 118, N-(4-chlorophenyl)-6-(3,5-dimethyl-1H-pyrazol-1-yl)-9-isopropyl-9H-purin-2-amine]",+++ (+++ means <200 nM)
2,"Cc1cn(-c2nc(Nc3ccc(F)cc3)cc(OC3COC3)n2)nc1CF [Compound 163, 2-(3-(fluoromethyl)-4-methyl-1H-pyrazol-1-yl)-N-(4-fluorophenyl)-6-(oxetan-3-yloxy)pyrimidin-4-amine]",++ (++ means 200 nM-1000 nM)
3,"CC(O)c1ccn(-c2nc(Nc3ccc(F)cc3)cc(N3CCOCC3)n2)n1 (centres unmarked) [Compound 146, 1-(1-(4-((4-fluorophenyl)amino)-6-morpholinopyrimidin-2-yl)-1H-pyrazol-3-yl)ethan-1-ol]",+ (+ means >1 uM)
4,"FCc1ccn(-c2nc(Nc3ccc(Cl)cc3)cc(N3CCOCC3)n2)n1 [Compound 151, N-(4-chlorophenyl)-2-(3-(fluoromethyl)-1H-pyrazol-1-yl)-6-morpholinopyrimidin-4-amine]",++ (++ means 200 nM-1000 nM)
5,"CC(=O)NCc1cc(Nc2ccc(F)cc2)nc(-n2cc(C)c(C(F)F)n2)c1 [Compound 168, N-((2-(3-(difluoromethyl)-4-methyl-1H-pyrazol-1-yl)-6-((4-fluorophenyl)amino)pyridin-4-yl)methyl)acetamide]",+++ (+++ means <200 nM)
6,"Cc1cc(Nc2ccc(F)cc2)nc(-n2ccc(C(C)(C)O)n2)n1 [Compound 138, 2-(1-(4-((4-fluorophenyl)amino)-6-methylpyrimidin-2-yl)-1H-pyrazol-3-yl)propan-2-ol]",+ (+ means >1 uM)
7,"CC(=O)NCc1cc(Nc2ccc(F)cc2)nc(-n2cc(C)c(CF)n2)c1 [Compound 161, N-((2-(3-(fluoromethyl)-4-methyl-1H-pyrazol-1-yl)-6-((4-fluorophenyl)amino)pyridin-4-yl)methyl)acetamide]",+++ (+++ means <200 nM)
8,"FCc1ccn(-c2nc(Nc3ccc(F)cc3)cc(OC3COC3)n2)n1 [Compound 162, 2-(3-(fluoromethyl)-1H-pyrazol-1-yl)-N-(4-fluorophenyl)-6-(oxetan-3-yloxy)pyrimidin-4-amine]",++ (++ means 200 nM-1000 nM)
9,"CC(C)(O)c1ccn(-c2nc(Nc3ccc(F)cc3)cc(N3CC4(COC4)C3)n2)n1 [Compound 155, 2-(1-(4-((4-fluorophenyl)amino)-6-(2-oxa-6-azaspiro[3.3]heptan-6-yl)pyrimidin-2-yl)-1H-pyrazol-3-yl)propan-2-ol]",+ (+ means >1 uM)
10,"CC(=O)NCc1cc(Nc2ccc(Cl)cc2)nc(-n2ccc(C(F)F)n2)c1 [Compound 165, N-((2-((4-chlorophenyl)amino)-6-(3-(difluoromethyl)-1H-pyrazol-1-yl)pyridin-4-yl)methyl)acetamide]",++ (++ means 200 nM-1000 nM)
11,"CC(C)(O)c1ccn(-c2nc(Nc3ccc(F)cc3)cc(N3CCOCC3)n2)n1 [Compound 148, 2-(1-(4-((4-fluorophenyl)amino)-6-morpholinopyrimidin-2-yl)-1H-pyrazol-3-yl)propan-2-ol]",+ (+ means >1 uM)
12,"CC(=O)NCc1cc(Nc2ccc(Cl)cc2)nc(-n2ccc(CF)n2)c1 [Compound 164, N-((2-((4-chlorophenyl)amino)-6-(3-(fluoromethyl)-1H-pyrazol-1-yl)pyridin-4-yl)methyl)acetamide]",+++ (+++ means <200 nM)
13,"CC(=O)NCc1cc(Nc2ccc(F)cc2)nc(-n2ccc(CF)n2)c1 [Compound 159, N-((2-(3-(fluoromethyl)-1H-pyrazol-1-yl)-6-((4-fluorophenyl)amino)pyridin-4-yl)methyl)acetamide]",+++ (+++ means <200 nM)
14,"CC(=O)NCc1cc(Nc2ccc(F)cc2)nc(-n2cc(C)c(C(C)O)n2)c1 (centres unmarked) [Compound 167, N-((2-((4-fluorophenyl)amino)-6-(3-(1-hydroxyethyl)-4-methyl-1H-pyrazol-1-yl)pyridin-4-yl)methyl)acetamide]",++ (++ means 200 nM-1000 nM)
15,"OCc1ccn(-c2nc(Nc3ccc(F)cc3)cc(N3CCOCC3)n2)n1 [Compound 156, (1-(4-((4-fluorophenyl)amino)-6-morpholinopyrimidin-2-yl)-1H-pyrazol-3-yl)methanol]",+ (+ means >1 uM)
16,"Cc1cc(Nc2ccc(F)cc2)nc(-n2ccc(CO)n2)n1 [Compound 137, (1-(4-((4-fluorophenyl)amino)-6-methylpyrimidin-2-yl)-1H-pyrazol-3-yl)methanol]",+ (+ means >1 uM)
17,"Cc1cc(C)n(-c2nc(Nc3ccc(Cl)cc3)nc3c2ncn3CC#N)n1 [Compound 130, 2-(2-((4-chlorophenyl)amino)-6-(3,5-dimethyl-1H-pyrazol-1-yl)-9H-purin-9-yl)acetonitrile]",++ (++ means 200 nM-1000 nM)
18,"CC(=O)NCc1cc(Nc2ccc(F)cc2)nc(-n2cc(C)c(CO)n2)c1 [Compound 166, N-((2-((4-fluorophenyl)amino)-6-(3-(hydroxymethyl)-4-methyl-1H-pyrazol-1-yl)pyridin-4-yl)methyl)acetamide]",+ (+ means >1 uM)

# Same assay, conditions: Stimulating Concentration required for increasing the baseline current by 100%; HEK293 cells expressing hSK2; Table 4
row,SC100 (μM),Structure (SMILES)
1,++ (++ means 200 nM-1000 nM),"Cc1ccn(-c2cc(CO)cc(Nc3ccc(F)cc3F)n2)n1 [NSSy6773, (2-((2,4-difluorophenyl)amino)-6-(3-methyl-1H-pyrazol-1-yl)pyridin-4-yl) methanol]"
2,+ (+ means >1 uM),"Cc1cc(Nc2ccc(F)cc2)nc(-c2ccc(C)[nH]2)n1 [IN11196-053-P1, N-(4-fluorophenyl)-6-methyl-2-(5-methyl-1H-pyrrol-2-yl)pyrimidin-4-amine]"
3,+ (+ means >1 uM),"Cc1cc(Nc2ccc(F)cc2)nc(-c2ccccn2)n1 [IN11121-037-P1, N-(4-fluorophenyl)-6-methyl-2-(pyridin-2-yl)pyrimidin-4-amine]"
4,++ (++ means 200 nM-1000 nM),COc1cc(Nc2ccc(F)cc2)nc(-c2nc(C)cs2)n1 [IN11059-059-P1]
5,+ (+ means >1 uM),Cc1cccc(-c2nccc(Nc3ccc(F)cc3)n2)n1 [IN11130-036-P1]

row,Structure (SMILES),SC100 (μM)
1,CC(=O)c1cc(Nc2cccc(C(F)(F)F)c2)nc(-n2ccc(C)n2)n1 [IN10876-038-P1],+ (+ means >1 uM)
